Laboratory results from US4285956A, “Xanthene and thioxanthene derivatives, compositions thereof and treatment therewith” (priority 1978, dated 1981).

Experiments:
[1] = Neuroleptic effect: duration and strength (remarks of Table 2); format: in vivo; details: in words; for Duration (remarks, words): duration of neuroleptic effect; for Strength of effect (remarks, words): strength of neuroleptic effect
Description: The pharmacological testing of the novel xanthones and thioxanthenes of Formula I consisted of standard and reliable tests. […]

[2] = Catalepsy wire mesh, rat, max.; format: in vivo, rats; details: for ED50: Rattus norvegicus, sc, rats, s.c., strongest effect within first 6 hours, read-out: Catalepsy wire mesh, rat, max. ED50; for Cataleptic activity: in words
Method: Catalepsy wire mesh, rat, max. (ED50 mg/kg s.c.)
A vertical wire netting (50 cm×49 cm). The meshes (openings) of the netting are square (1 cm×1 cm). The wire diameter is 2 mm. Stop watch. Rats, male, 180-200 g.
The animals are labeled and used in groups of five. The test substance is injected subcutaneously (s.c.) (5 ml/kg) at 4 dose levels selected from the fixed dose scale.
The animals are placed in the middle of the vertical wire netting 60, 120, 180, 240, 300 and 360 minutes after injection of the test compound. The animals are considered cataleptic when they remain immobile during a period of 15 seconds. This cataleptic reaction is designated +. If the rats are "atonic" and passively slide down the wire mesh they are considered not cataleptic. If the animals climb up and down the wire mesh they are nor cataleptic. In both situations the designation - is used.

[3] = Methylphenidate antagonism (mice biting corrugated paper); format: in vivo; details: Mus musculus, ip
Method: Methylphenidate antagonism (ED50 mg/kg i.p.)
Perspex observation cages without bottom and lid, consisting of 5 sections each measuring 12×25×30 cm. White corrugated paper. Mice, male, 18-25 g.
The test substance is given i.p. in the doses 0, 1/8, 1/32 and 1/128 of the determined "i.p. LD50". 3×2 mice are used for each dose level. Two or 24 hours after injection of test substance, methylphenidate, 60 mg/kg, is injected s.c. After administration of methylphenidate the mice are placed in the observation cages, 2 in each cage, where they remain for exactly 1 hour. The cages are placed on corrugated paper, the corrugations facing upwards. It is examined whether the mice have been biting the corrugated paper or not. […] If one or more of the control pairs have not been biting, the test has to be repeated on a new set of mice.
The result is stated in fractions: 0/3, 1/3, 2/3 and 3/3 where 0, 1, 2 and 3 are the number of pairs which have not been biting on receipt of the dose in question.
The results are calculated as the dose (ED50), which causes antagonism in 50% of the test animals.

[4] = Amphetamine antagonism (stereotypy in rats); format: in vivo; details: Rattus norvegicus
[5] = mice, i.p., methylphenidate 60 mg/kg s.c. 2 h after test substance, read-out: Methylphenidate antagonism ED50, 2 h
[6] = mice, i.p., methylphenidate 60 mg/kg s.c. 24 h after test substance, read-out: Methylphenidate antagonism ED50, 24 h
[7] = ip, 24 h, read-out: Amphetamine antagonism ED50
[8] = 2 h, read-out: Methylphenidate antagonism ED50, 2 h
[9] = 24 h, read-out: Methylphenidate antagonism ED50, 24 h
[10] = po, read-out: Amphetamine antagonism ED50, p.o.

Compound	Duration (remarks, words) [1]	Strength of effect (remarks, words) [1]	ED50 [2] [mg/kg]	ED50 [3, 5] [mg/kg]	ED50 [3, 6] [mg/kg]	ED50 [4, 7] [mg/kg]	ED50 [3, 8] [mg/kg]	ED50 [3, 9] [mg/kg]	Cataleptic activity [2]	ED50 [4, 10] [mg/kg]
O=C1OCCN1CCN1CCC(=C2c3ccc(F)cc3Sc3ccc(Cl)cc32)CC1 [Lu 14-117, 1-(2-(2-Oxazolidinon-3-yl)ethyl)-4-(2-chloro-6-fluoro-9-thioxanthenylidene)piperidine]	short acting	strong	1	0.21	29	0.34				
O[C@H]1CC[C@@H](CN2CCC(=C3c4ccc(F)cc4Sc4ccc(C(F)(F)F)cc43)CC2)CC1 [Lu 15-013, 1-(cis-4-hydroxycyclohexylmethyl)-4-(2-trifluoromethyl-6-fluoro-9-thioxanthenylidene)piperidene]	long acting	strong	1.2	0.63	0.1	0.76				
OCCN1CCN(CCCN2c3ccccc3Sc3ccc(C(F)(F)F)cc32)CC1 [fluphenazine, reference compound]	short acting	very strong	0.099			0.08	0.04	3.6		
OCCN1CCN(CCC=C2c3ccccc3Sc3ccc(C(F)(F)F)cc32)CC1 [flupentixol, reference compound]	short acting	strong	0.25			0.69	0.2	> 20		
O=C1NCCN1CCN1CCC(=C2c3ccccc3Sc3ccc(Cl)cc32)CC1 [Lu 16-105]	short acting	strong	0.38	0.16	28	1.2				
CN1CCN(C2=Nc3cc(Cl)ccc3Nc3ccccc32)CC1 [clozapine, reference compound]	short acting	weak	85			> 40	> 160			
O[C@H]1CCC[C@H](CN2CCC(=C3c4ccc(F)cc4Sc4ccc(C(F)(F)F)cc43)CC2)C1 (relative stereo) [Lu 15-030, 1-(trans-3-hydroxycyclohexylmethyl)-4-(2-trifluoromethyl-6-fluoro-9-thioxanthenylidene)-piperidine]	long acting	very strong	0.39	0.28	0.05	0.88			have a cataleptic activity	
CN(C)CC/C=C1/c2ccccc2Sc2ccc(Cl)cc21 [chlorprothixene, reference compound]	short acting	moderately strong	4			6.1	0.71	> 20		
O=C1OCCN1CCN1CCC(=C2c3ccccc3Sc3ccc(Cl)cc32)CC1 [Lu 14-106, 1-(2-(2-Oxazolidinone-3-yl)ethyl)-4-(2-chloro-9-thioxanthenylidene)piperidine]	short acting	strong	6.6	0.51	> 40	1				
O=C1CCC(CN2CCC(=C3c4ccc(F)cc4Sc4ccc(C(F)(F)F)cc43)CC2)CC1 [Lu 16-088]	long acting	strong	0.81	0.77	0.06					0.3
CN(C)CCCN1c2ccccc2Sc2ccc(Cl)cc21 [chlorpromazine, reference compound]	short acting	moderatley strong	5.6			7.1	4	20		
Cc1ccc2c(c1)Sc1ccc(C(F)(F)F)cc1C2=C1CCN(C[C@H]2CC[C@H](O)CC2)CC1 [Lu 16-014, 1-(trans-4-hydroxycyclohexylmethyl)-4-(2-trifluoromethyl-6-methyl-9-thioxanthenylidene)-piperidine]	long acting	moderately strong	0.97	0.31	1.9	1				
Cc1ccc2c(c1)C(=C1CCN(CCN3CCOC3=O)CC1)c1ccc(F)cc1S2 [Lu 14-070, 1-(2-(2-Oxazolidinon-3-yl)ethyl)-4-(2-methyl-6-fluoro-9-thioxanthenylidene)-piperidine]	short acting	moderately strong	1.8	0.32	> 40	1.3				
CSc1ccc2c(c1)C(=C1CCN(C[C@H]3CC[C@H](O)CC3)CC1)c1ccc(F)cc1O2 [Lu 15-119, 1-(Trans-4-hydroxycyclohexylmethyl)-4-(2-methylthio-6-fluoro-9-xanthenylidene)piperidine]	long acting	very strong	0.08	0.09	0.11	0.56			have a cataleptic activity	
CSc1ccc2c(c1)C(=C1CCN(C[C@H]3CC[C@H](O)CC3)CC1)c1ccc(F)cc1S2 [Lu 14-116, 1-(trans-4-hydroxycyclohexylmethyl)-4-(2-methylthio-6-fluoro-9-thioxanthenylidene)-piperidine]	long acting	strong	0.58	0.44	0.38	0.28				
N[C@H]1CC[C@H](CN2CCC(=C3c4ccc(F)cc4Sc4ccc(C(F)(F)F)cc43)CC2)CC1 [Lu 16-042]	long acting	strong	3.3	1.2	0.17					2.5
O[C@H]1CC[C@H](CN2CCC(=C3c4ccccc4Sc4ccc(Cl)cc43)CC2)CC1 [Lu 14-047, 1-(trans-4-hydroxycyclohexylmethyl)-4-(2-chloro-9-thioxanthenylidene)-piperidine]	short acting	strong	3.5	0.59	> 20	0.32				
O=C1NCCN1CCN1CCC(=C2c3ccc(F)cc3Sc3ccc(C(F)(F)F)cc32)CC1 [Lu 16-104]	relatively short acting	strong	0.11	0.06	1.5	0.15				
OC1CC(O)(CN2CCC(=C3c4ccc(F)cc4Sc4ccc(C(F)(F)F)cc43)CC2)CC(O)C1O (stereo not drawn) [Lu 15-089]	relatively short acting		2.7	0.32	0.32	1.8				
Fc1ccc2c(c1)Sc1ccc(C(F)(F)F)cc1C2=C1CCN(CC2CCOCO2)CC1 (stereo not drawn) [Lu 14-130, 1-(1,3-Dioxan-4-ylmethyl)-4-(2-trifluoromethyl-6-fluoro-9-thioxanthenylidene)piperidine]	long acting	moderately strong	2.8	0.77	0.7	0.62				
